Laboratory results from patent US20220313651A1, “INHIBITORS OF ZIKA VIRUS INFECTION” (priority 2019, published 2022).
Read-outs that look alike come from different tables or passages of the source.

How the values were obtained:
ZIKV PAN2016 strain = assay: Combinatorial effects of gossypol with other Z-medicaments, ZIKV PAN2016; format: cell-based, Zika virus (ZIKV); details: for Fold of Enhancement / CI (combination index): ZIKV PAN2016; for Fold of Enhancement: IC50 alone / in mixture; for CI (combination index): named compound in combination with gossypol
Protocol: The unbound viruses and Z-medicaments were removed, and the cells were cultured at 37° C. for 4-5 days, followed by staining with 0.5% crystal violet. The Z-medicaments without combinations were used as controls. The IC50 of the Z-medicaments was calculated as described above.
The Z-medicaments were then analyzed for synergistic effects based on the combination index (CI) and IC50 values using the CalcuSyn program. Specifically, CI values <1 and >1 indicate synergy and antagonism, respectively. Synergy was further identified as five different categories: CI values <0.1, 0.1-0.3, 0.3-0.7, 0.7-0.85, and 0.85-0.90 indicate very strong synergism, strong synergism, synergism, moderate synergism, and slight synergism, respectively. Fold enhancement of anti-ZIKV potency is expressed as the ratio of molar concentrations of the Z-medicaments tested alone and in the mixture.

[1] = test system: DENV-2-V594 (2006/Puerto Rico); assay: microbe, parasite or virus in culture
From the text: (§1) Vero E6 and LLC-MK2 cells were maintained in Dulbecco's Modified Eagle Medium (DMEM) supplemented with 8% fetal bovine serum (FBS) and penicillin and streptomycin (P/S). C6/36 cells were maintained in Eagle's Minimal Essential Medium (EMEM) supplemented with 5% FBS and P/S. ZIKV strains, including human strains PAN2016 (2016/Panama), R116265 (2016/Mexico), PAN2015 (2015/Panama), FLR (2015/Colombia), R103451 (2015/Honduras), PRVABC59 (2015/Puerto Rico), PLCal_ZV (2013/Thailand), and IbH 30656 (1968/Nigeria), mosquito strain MEX 2-81 (2016/Mexico), and rhesus macaque strain MR 766 (1947/Uganda), were used in the studies. These ZIKV strains were cultured in Vero E6 cells, and viral titers were detected by a standard plaque-forming assay. DENV human strains, including type 1: DENV-1-V1792 (2007/Vietnam), type 2: DENV-2-V594 (2006/Puerto Rico), type 3: DENV-3-V1043 (2006/Puerto Rico), and type 4: DENV-4-PR 06-65-740 (2006/Puerto Rico), were cultured in C6/36 cells, and the viral titers were determined by plaque-forming assay as described above.
(§2) The inhibitory activity of the Z-medicaments against DENV-1-4 was performed following the similar procedures as for ZIKV, except that LLC-MK2 cells were used for the infection, and cells were cultured at 37° C. for 14-16 days before staining with 0.5% crystal violet.
(§3) After removal of the unbound compounds by centrifugation after addition of 3% PEG-6000, ZIKV was incubated with Vero E6 cells at 37° C. for 1 h. The cells were then washed with PBS, overlaid with DMEM containing 1% carboxymethyl cellulose and 2% FBS, and cultured at 37° C. for 4-5 days, followed by staining with 0.5% crystal violet.

[2] = test system: DENV-4-PR 06-65-740 (2006/Puerto Rico); assay: microbe, parasite or virus in culture
From the text: as §1, §2, §3

[3] = test system: DENV-1-V1792 (2007/Vietnam); assay: microbe, parasite or virus in culture
From the text: as §1, §2, §3

[4] = test system: DENV-3-V1043 (2006/Puerto Rico); assay: microbe, parasite or virus in culture
From the text: as §1, §2, §3

Vero E6 cells = assay: in vitro
Protocol: The cytotoxicity of the Z-medicaments in Vero E6 (ZIKV target cells) was evaluated using the Cell Counting Kit-8 (CCK8).
(§4) Briefly, compounds at 2-fold serial dilutions were added to cells (2.0×10^4/well) pre-seeded in 96-well plates. The cells were cultured at 37° C. for 3 days, and incubated with CCK8 solution, followed by measurement of absorbance at 450 nm (A450 value) using microplate reader.

LLC-MK2 cells = test system: LLC-MK2 cells
Protocol: The cytotoxicity of Z-medicaments in LLC-MK2 (DENV-1-4 target cells) was detected using Cell Counting Kit-8 (CCK8). […] The cells were then incubated with CCK8 solution, and measured absorbance at 450 nm (A450 value) using a microplate reader.
as §4

[5] = test system: ZIKV human strain PAN2015 (2015/Panama); assay: microbe, parasite or virus in culture; format: cell-based, Zika virus (ZIKV); details: Vero E6 cells
From the text: as §1
A plaque reduction inhibition assay was carried out to measure the inhibitory activity of Z-medicaments against infections of ZIKV and DENV. […] The compound-virus mixtures were then transferred to Vero E6 cells (10^5/well) and incubated at 37° C. for 1 h. […] The cells were washed thoroughly with PBS, and overlaid with DMEM containing 1% carboxymethyl cellulose and 2% FBS, followed by in vitro culture at 37° C. for 4-5 days and then staining with 0.5% crystal violet.
as §3

ZIKV NS2B-NS3 protease = target: T1, ZIKV NS2B-NS3 protease (Zika virus, UniProt Q32ZE1); assay: Fluorescence-based inhibition of NS2B-NS3 protease activity; format: biochemical; details: substrate Bz-Nle-Lys-Lys-Arg-AMC 4 μM, protein 1 μg/ml
T1 construct: 49-97) and NS2 protein (residues 1-185) through a covalent; made in house; host or cells: E. coli
Protocol: Binding of compounds (NPs) to ZIKV full-length E (FIG. 3A), EDIII (FIG. 3B), and NS2B-NS3 (FIG. 3C) proteins, was detected by ELISA. The percent binding was reported in the presence or absence of serially diluted NPs using the formula (1-[E/EDIII-NP]/[E/EDIII])×100 (for E/EDIII binding) or (1-[NS2B-NS3-NP]/[NS2B-NS3])×100 (for NSEB-NS3 binding). […] The concentrations of ZIKV EDIII and mAbs were 1.5 and 0.5 μg/ml, respectively. […] The concentrations of substrate (Bz-Nle-Lys-Lys-Arg-AMC) and ZIKV NS2B-NS3 protein were 4 μM and 1 μg/ml, respectively. The percent inhibition of protease activity was calculated in the presence or absence of serially diluted compounds using the formula (1-[NS2B-NS3-substrate-NP]/[NS2B-NS3-substrate])×100. The IC50 values were calculated based on the percent inhibition. The data are expressed as mean±s.e.m. (n=4).

[6] = Dengue virus, DENV2, LLC-MK2, read-out: IC50 DENV-2-V594, LLC-MK2 cells, Table 5
[7] = Dengue virus, DENV4, LLC-MK2, read-out: IC50 DENV-4-PR 06-65-740, LLC-MK2 cells, Table 5
[8] = Dengue virus, DENV1, LLC-MK2, read-out: IC50 DENV-1-V1792, LLC-MK2 cells, Table 5
[9] = Dengue virus, DENV3, LLC-MK2, read-out: IC50 DENV-3-V1043, LLC-MK2 cells, Table 5
[10] = Vero E6 cells, 3 days, CCK8, Table 1

## Cc1cc2c(C(C)C)c(O)c(O)c(C=O)c2c(O)c1-c1c(C)cc2c(C(C)C)c(O)c(O)c(C=O)c2c1O [Gossypol, gossypol]
ZIKV PAN2016 strain; Zika virus, Vero C1008, read-out: IC50 Alone
  IC50: 3.79 ± 0.01 µM
[1]; [6]
  IC50: 1.89 µM
[1]; Dengue virus, DENV2, LLC-MK2, read-out: IC50 DENV-2-V594, LLC-MK2 cells, Table 8
  IC50: 1.91 ± 0.01 µM
[2]; [7]
  IC50: 2.6 µM
[2]; Dengue virus, DENV4, LLC-MK2, read-out: IC50 DENV-4-PR 06-65-740, LLC-MK2 cells, Table 8
  IC50: 2.83 ± 0.07 µM
[3]; [8]
  IC50: 1.87 µM
[3]; Dengue virus, DENV1, LLC-MK2, read-out: IC50 DENV-1-V1792, LLC-MK2 cells, Table 8
  IC50: 2.06 ± 0.13 µM
[4]; [9]
  IC50: 3.7 µM
[4]; Dengue virus, DENV3, LLC-MK2, read-out: IC50 DENV-3-V1043, LLC-MK2 cells, Table 8
  IC50: 3.42 ± 0.11 µM
Vero E6 cells; African green monkey, 3 days
  CC50: 14.2 ± 0.74 µM

## C[C@H]1[C@H]2CC[C@H]3[C@@H]4CC=C5C[C@@H](N(C)C)CC[C@]5(C)[C@H]4CC[C@]23CN1C [Conessine, conessine]
ZIKV PAN2016 strain; gossypol + conessine
  Fold of Enhancement: 4.44
ZIKV PAN2016 strain
  CI (combination index): 0.44

## C[C@@H]1CC[C@@]2(OC1)O[C@H]1[C@@H](O)[C@H]3[C@@H]4CC[C@H]5C[C@@H](O[C@@H]6O[C@H](CO)[C@H](O[C@@H]7O[C@H](CO)[C@@H](O)[C@H](O[C@@H]8OC[C@@H](O)[C@H](O)[C@H]8O)[C@H]7O[C@@H]7O[C@H](CO)[C@H](O)[C@H](O[C@@H]8O[C@H](CO)[C@@H](O)[C@H](O)[C@H]8O)[C@H]7O)[C@H](O)[C@H]6O)[C@H](O)C[C@]5(C)[C@H]4CC[C@]3(C)[C@H]1[C@@H]2C [Digitonin, digitonin]
ZIKV PAN2016 strain; gossypol + digitonin
  Fold of Enhancement: 3.21
ZIKV PAN2016 strain
  CI (combination index): 0.60
[1]; [6]
  IC50: 6.56 ± 0.21 µM
[2]; [7]
  IC50: 6.44 ± 0.34 µM
[3]; [8]
  IC50: 5.21 ± 0.35 µM
[4]; [9]
  IC50: 4.07 ± 0.83 µM
LLC-MK2 cells; 3 days, CCK8, Table 5
  CC50: 59.02 ± 0.33 µM
[5]; Zika virus, Vero C1008, Table 1, read-out: IC50 against ZIKV strain PAN2015
  IC50: 5 ± 0.01 µM
Vero E6 cells; [10]
  CC50: 56.3 ± 1.2 µM

## COc1cc(/C=C/C(=O)CC(=O)/C=C/c2ccc(O)c(OC)c2)ccc1O [Curcumin, curcumin]
ZIKV PAN2016 strain; gossypol + curcumin
  Fold of Enhancement: 3.60
ZIKV PAN2016 strain
  CI (combination index): 0.52
ZIKV NS2B-NS3 protease
  Inhibition of NS2B-NS3 protease activity (in words): low inhibitory activity
LLC-MK2 cells; 3 days, CCK8, Table 5
  CC50: 59.4 ± 1.18 µM
Vero E6 cells; [10]
  CC50: 52.86 ± 0.52 µM

## Cc1cc2c(C(C)C)c(O)c(O)c(/C=N/n3c(=O)[nH][nH]c3=O)c2c(O)c1-c1c(C)cc2c(C(C)C)c(O)c(O)c(/C=N/n3c(=O)[nH][nH]c3=O)c2c1O [ST087010]
ZIKV NS2B-NS3 protease; read-out: IC50, inhibition of ZIKV NS2B-NS3 protease cleavage
  IC50: 4.84 µM
[1]
  SI (CC50/IC50), DENV-2-V594: 14.8
[1]; read-out: IC50 DENV-2-V594, LLC-MK2 cells, Table 8
  IC50: 3.19 ± 0.01 µM
[2]
  SI (CC50/IC50), DENV-4-PR 06-65-740: 15.8
[2]; read-out: IC50 DENV-4-PR 06-65-740, LLC-MK2 cells, Table 8
  IC50: 2.98 ± 0.18 µM
[3]
  SI (CC50/IC50), DENV-1-V1792: 15.7
[3]; read-out: IC50 DENV-1-V1792, LLC-MK2 cells, Table 8
  IC50: 3.01 ± 0.11 µM
[4]
  SI (CC50/IC50), DENV-3-V1043: 14.2
[4]; read-out: IC50 DENV-3-V1043, LLC-MK2 cells, Table 8
  IC50: 3.33 ± 0.08 µM
LLC-MK2 cells; Table 8
  CC50: 47.2 µM
[5]; Table 7, gossypol derivatives, read-out: ZIKV strains IC50, PAN2015
  IC50: 3.5 ± 0.06 µM
Vero E6 cells; Vero E6 cells
  CC50 relative to that of gossypol: about 3.5 fold
Vero E6 cells; Vero E6 cells, Table 7, gossypol derivatives
  CC50: 49.6 ± 1.83 µM
